Data as given in paper PMC9104356, “Characterisation of a Novel Acetyl Xylan Esterase (BaAXE) Screened from the Gut Microbiota of the Common Black Slug (Arion ater)” (Molecules, 2022).

System: T1, BaAXE (Gene_id_40363)
T1 construct: full-length 654 bp PCR product (about 218 residues), pDEST42, C-terminal 6xHis, E. coli BL21(DE3), 27 kDa by SDS-PAGE; forward primer CACCATGAAACATGACCAC encodes N-terminus MKHDH
Assay: spectrophotometric 4-nitrophenol release at […] nm, nonlinear Michaelis-Menten fit
Type: biochemical
Settings: pH 8, 0.1-2 mM substrate; temperature not told for kinetics (standard assay 40 °C, 50 mM sodium phosphate, 150 mM NaCl, 0.01% Triton X-100)

- Km: 430 µM
SMILES: CC(=O)Oc1ccc([N+](=O)[O-])cc1 [4-NPA, 4-nitrophenyl acetate]
